Reference: US12226401B2, “Molecular genetic approach to treatment and diagnosis of alcohol and drug dependence” (priority 2010, dated 2025)

What was measured:
[1] = test system: alcohol dependent individuals; test: Same ondansetron alcohol dependence trial, epistatic genotype analysis: drinks/day (DD); assay type: in vivo, human
Text: Using the same data as was used in Example 11, further epistatic analysis among SNPs from serotonin (SERT), 5HT-3A, and 5HT-3B reveal that significant epistatic effect exists among the three genes in affecting response to ondesetron treatment as measured by drinks/drinking day (DDD), drinks/day (DD), percentage heavy drinking days (PHDD), and percentage of days abstinent (PDA).
Using the same data as was used in Example 11, further epistatic analysis among SNPs from serotonin (SERT), 5HT-3A, and 5HT-3B reveal that significant epistatic effect exists among the three genes in affecting response to ondesetron treatment as measured by DDD, DD, and PDA.

[2] = test system: methamphetamine dependent subjects; test: Methamphetamine/Ondansetron study: proportion of subjects with methamphetamine-free (clean) week, GEE analysis by 5'-HTTLPR genotype; assay type: in vivo, human
Text: Methods: Data were modeled using generalized estimating equations (GEE). […] Independent variables were genotype, group, weeks since randomization and the interaction between treatment group and weeks since randomization. […] The model's group and genotype terms allowed for possible differences at baseline due to ineffective randomization and genotype, respectively. Group consisted of two levels: placebo vs. all active arms combined, where all active arms were combined at the request of the study sponsor and investigators. Subjects were of three different genotypes—SS, LL and LS. At the request of the investigator, two, separate GEE analyses were run, one for each pairing of a homozygote with the heterozygote (i.e., SS-LS and LL-LS). Due to the small quantity of subjects for which genotyping was conducted (n=34), hypothesis testing used Type III generalized score statistics. Analysis was restricted to data obtained post-randomization. Methods: Data were modeled using generalized estimating equations (GEE). […] Independent variables were genotype, group, weeks since randomization and the interaction between treatment group and weeks since randomization. The hypothesis of primary interest asked if treatment with ondansetron influences rate of change in methamphetamine usage over time. […] The model's group and genotype terms allowed for possible differences at baseline due to ineffective randomization and genotype, respectively. Group consisted of two levels: placebo vs. all active arms combined, where all active arms were combined at the request of the study sponsor and investigators. Subjects were of three different genotypes—SS, LL and LS. At the request of the investigator, two, separate GEE analyses were run, one for each pairing of a homozygote with the heterozygote (i.e., SS-LS and LL-LS). Due to the small quantity of subjects for which genotyping was conducted (n=34), hypothesis testing used Type III generalized score statistics. Analysis was restricted to data obtained post-randomization.

SMILES: Cc1nccn1CC1CCc2c(c3ccccc3n2C)C1=O (stereo not shown) [ondansetron, 9-methyl-3-[(2-methyl-1H-imidazol-1-yl)methyl]-1,2,3,9-tetrahydrocarbazol-4-one]
- Least Squares Mean Difference, Drinks per Days, OND vs. Placebo ([1]; Among Comb (LL + TT or AC or AG)): −1.65
- Least Squares Mean Difference, Drinks per Days, Comb vs. Others ([1]; Among OND, Comb = LL + TT or AC or AG): −1.65
- Least Squares Mean, Drinks per Days ([1]; Comb (LL + TT or AC or AG)): 2.90
- Least Squares Mean, Drinks per Days ([1]; Others (not LL + TT or AC or AG)): 4.55
- Least Squares Mean, Drinks per Days ([1]; all OND patients, model Comb (LL + TT or AC or AG) vs Others): 3.72
- Proportion with Clean Week, Mean ([2]; Active Arm Yes (all active arms combined), all genotypes, study week 1): 0.55
- Proportion with Clean Week, Mean ([2]; Active Arm Yes, all genotypes, study week 2): 0.50
- Proportion with Clean Week, Mean ([2]; Active Arm Yes, all genotypes, study week 3): 0.63
- Proportion with Clean Week, Mean ([2]; Active Arm Yes, all genotypes, study week 4): 0.53
- Proportion with Clean Week, Mean ([2]; Active Arm Yes, all genotypes, study week 5): 0.43
- Proportion with Clean Week, Mean ([2]; Active Arm Yes, all genotypes, study week 6): 0.33
- Proportion with Clean Week, Mean ([2]; Active Arm Yes, all genotypes, study week 7): 0.46
- Proportion with Clean Week, Mean ([2]; Active Arm Yes, all genotypes, study week 8): 0.50
- Proportion with Clean Week, Mean ([2]; LLLS No, Active Yes, study week 1): 0.50
- Proportion with Clean Week, Mean ([2]; LLLS No, Active Yes, study week 2): 0.33
- Proportion with Clean Week, Mean ([2]; LLLS No, Active Yes, study week 3): 0.71
- Proportion with Clean Week, Mean ([2]; LLLS No, Active Yes, study week 4): 0.50
- Proportion with Clean Week, Mean ([2]; LLLS No, Active Yes, study week 5): 0.25
- Proportion with Clean Week, Mean ([2]; LLLS No, Active Yes, study week 6): 0.50
- Proportion with Clean Week, Mean ([2]; LLLS No, Active Yes, study week 7): 0.25
- Proportion with Clean Week, Mean ([2]; LLLS No, Active Yes, study week 8): 0.00
- Proportion with Clean Week, Mean ([2]; LLLS Yes, Active Yes, study week 1): 0.58
- Proportion with Clean Week, Mean ([2]; LLLS Yes, Active Yes, study week 2): 0.60
- Proportion with Clean Week, Mean ([2]; LLLS Yes, Active Yes, study week 3): 0.58
- Proportion with Clean Week, Mean ([2]; LLLS Yes, Active Yes, study week 4): 0.55
- Proportion with Clean Week, Mean ([2]; LLLS Yes, Active Yes, study week 5): 0.50
- Proportion with Clean Week, Mean ([2]; LLLS Yes, Active Yes, study week 6): 0.25
- Proportion with Clean Week, Mean ([2]; LLLS Yes, Active Yes, study week 7): 0.56
- Proportion with Clean Week, Mean ([2]; LLLS Yes, Active Yes, study week 8): 0.57
- Proportion with Clean Week, Mean ([2]; SSLS No, Active Yes, study week 1 since randomization): 1.00
- Proportion with Clean Week, Mean ([2]; SSLS No, Active Yes, study week 2): 0.50
- Proportion with Clean Week, Mean ([2]; SSLS No, Active Yes, study week 3): 1.00
- Proportion with Clean Week, Mean ([2]; SSLS No, Active Yes, study week 4): 0.50
- Proportion with Clean Week, Mean ([2]; SSLS No, Active Yes, study week 5): 0.50
- Proportion with Clean Week, Mean ([2]; SSLS No, Active Yes, study week 6): 0.50
- Proportion with Clean Week, Mean ([2]; SSLS No, Active Yes, study week 7): 0.50
- Proportion with Clean Week, Mean ([2]; SSLS No, Active Yes, study week 8): 0.50
- Proportion with Clean Week, Mean ([2]; SSLS Yes, Active Yes, study week 1): 0.50
- Proportion with Clean Week, Mean ([2]; SSLS Yes, Active Yes, study week 2): 0.50
- Proportion with Clean Week, Mean ([2]; SSLS Yes, Active Yes, study week 3): 0.59
- Proportion with Clean Week, Mean ([2]; SSLS Yes, Active Yes, study week 4): 0.53
- Proportion with Clean Week, Mean ([2]; SSLS Yes, Active Yes, study week 5): 0.42
- Proportion with Clean Week, Mean ([2]; SSLS Yes, Active Yes, study week 6): 0.30
- Proportion with Clean Week, Mean ([2]; SSLS Yes, Active Yes, study week 7): 0.45
- Proportion with Clean Week, Mean ([2]; SSLS Yes, Active Yes, study week 8): 0.50
- Proportion of subjects with a methamphetamine-free week over time ([2]; active group (all active arms combined), 34 subjects, placebo arm declined): remained roughly steady
